The source of these data is patent US20070066543A1, “Treatment of tay sachs or sandhoff diseases by enhancing hexosaminidase activity” (The Hospital For Sick Children, priority 2003, published 2007).

By Ki is commonly meant the dissociation constant of the complex between target and ligand, obtained from inhibition or displacement.

Where two headings read alike, the source gives them in different places. Where only a bound is given, the exact number is not on record here.

Series [1] addresses hexosaminidase A in wild type fibroblasts (Homo sapiens, UniProt P06865+P07686). Put plainly: Hexosaminidase A activity (MUGS) in wild type fibroblasts grown with compound. Format: cell-based.
Description: (§1) The effect of inhibitors on hexosaminidase A activity in fibroblast cells was evaluated using two formats (96- or 6-wells). For the dose response curves and kinetics of increased hexosaminidase A activity in the presence or absence of each compound, cells grown in 96 well tissue culture plates (Falcon) were used. To ensure that equal numbers of cells were seeded in each well, trypsinized cells were diluted to give 50% confluence when plated and 200 μL aliquoted into each well of the plate. Cells grown for longer than 5 days were supplemented with fresh medium. […] Each concentration point of the compounds was evaluated in triplicate.
Following 3-7 days of incubation at 37° C. in the presence or absence of the compound being tested, intracellular hexosaminidase A activity was determined. Medium was removed, cells were washed with PBS twice and lysed using 60 μL of 10 mM citrate phosphate buffer pH 4.5 (CP buffer) containing 0.5% human serum albumin and 0.5% Triton X-100. Cells were solubilized at room temperature for 15 min, and subsequently 25 μL of lysate was transferred to a new 96 well plate. Hexosaminidase A activity in lysates was measured using 25 μL of 3.2 mM MUGS in CP buffer with incubation at 37° for 1 hr. Afterwards, 250 μL of 0.1M 2-amino-2-methyl-1-propanol (pH 10.5) was used to stop the reaction and increase the fluorescence of the methyl umbelliferyl product, Fluorescence was read with a Perkin-Elmer LS50B Luminescence Spectrometer equipped with a sipper and using excitation wavelength of 365 nm and emission wavelength of 450 nm. For dose response and kinetic experiments, the relative increase in hexosaminidase A activity was expressed as the average fluorescence reading from three or four wells, with cells grown in the presence of compound divided by the average fluorescent reading from a minimum of four wells, with cells grown in the absence any compound. To control for plate to plate variability, control (untreated) cells were included with each 96 well plate.
Subsequently, hexosaminidase A activity was assayed using a MUGS assay as described above. […]
Series [2] deals with hexosaminidase A in ITSD fibroblasts. Nature of the series: MUGS hydrolysis in infantile Tay-Sachs (ITSD) fibroblasts grown with compound. It is filed as cell-based, human.
Description: Fibroblast cell lines from an unaffected patient (WT, 4212), from a patient diagnosed with the chronic (adult) form of TSD and homozygous for the mutation G269S (ATSD, 1766 or 17662) and from a fetus with the acute (infantile) form of TSD (ITSD, 2317) were grown in a-MEM (Invitrogen) supplemented with 10% FCS, and antibiotics Pen/Strep (Invitrogen) at 37° C. in a CO2 incubator. 17662: A fibroblast cell line (17662) from an adult-onset Tay-Sachs patient homozygous for the most common point mutation associated with the disease, Gly 269 Ser in the α subunit of hexosaminidase A, was obtained from Department of Pediatrics, University of Saskatoon.
The effect of inhibitors on hexosaminidase A activity in fibroblast cells was evaluated using two formats (96- or 6-wells). For the dose response curves and kinetics of increased hexosaminidase A activity in the presence or absence of each compound, cells grown in 96 well tissue culture plates (Falcon) were used. […] Each concentration point of the compounds was evaluated in triplicate.
Following 3-7 days of incubation at 37° C. in the presence or absence of the compound being tested, intracellular hexosaminidase A activity was determined. […] Hexosaminidase A activity in lysates was measured using 25 μL of 3.2 mM MUGS in CP buffer with incubation at 37° for 1 hr. Afterwards, 250 μL of 0.1M 2-amino-2-methyl-1-propanol (pH 10.5) was used to stop the reaction and increase the fluorescence of the methyl umbelliferyl product, Fluorescence was read with a Perkin-Elmer LS50B Luminescence Spectrometer equipped with a sipper and using excitation wavelength of 365 nm and emission wavelength of 450 nm. For dose response and kinetic experiments, the relative increase in hexosaminidase A activity was expressed as the average fluorescence reading from three or four wells, with cells grown in the presence of compound divided by the average fluorescent reading from a minimum of four wells, with cells grown in the absence any compound. […]
Series [3] relates to hexosaminidase A in ASD fibroblasts. Nature of the series: Hexosaminidase activity in adult Sandhoff (ASD) fibroblasts grown with compound. It is filed as cell-based, human. The conditions noted are these: ASD cells. As for the experimental part:
Fibroblast cell lines obtained from homozygous adult onset Tay-Sachs (ATSD), heterozygous adult onset Tay-Sachs (Het ATSD), infantile Tay-Sachs (ITSD and 4917), adult Sandhoff (ASD) and infantile Sandhoff (ISD) were cultured in the presence of various concentrations of ACAS and then examined for hexosaminidase A activity as described above. ACAS treatment gave increased hexosaminidase A activity in ATSD, ASD and ISD cells.

The target in series [4] is T1, hexosaminidase A/S in ISD cells (Homo sapiens, UniProt P06865).
T1 construct: endogenous in cells; host or cells: infantile Sandhoff (ISD) patient fibroblasts
T1 sequence (P06865 89-529): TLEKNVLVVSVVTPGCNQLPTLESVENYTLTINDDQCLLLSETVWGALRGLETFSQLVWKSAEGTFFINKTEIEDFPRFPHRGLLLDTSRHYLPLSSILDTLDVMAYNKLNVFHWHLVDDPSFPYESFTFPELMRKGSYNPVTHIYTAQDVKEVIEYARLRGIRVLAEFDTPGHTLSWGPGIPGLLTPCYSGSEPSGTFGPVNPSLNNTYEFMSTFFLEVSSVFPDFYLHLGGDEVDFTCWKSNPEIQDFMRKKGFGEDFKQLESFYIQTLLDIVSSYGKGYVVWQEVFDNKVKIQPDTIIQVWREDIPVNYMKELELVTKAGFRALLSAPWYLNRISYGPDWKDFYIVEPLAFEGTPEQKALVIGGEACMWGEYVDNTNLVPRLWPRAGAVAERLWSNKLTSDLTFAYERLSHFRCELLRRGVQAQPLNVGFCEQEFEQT
T1 sequence (P06865 23-74 limits assumed): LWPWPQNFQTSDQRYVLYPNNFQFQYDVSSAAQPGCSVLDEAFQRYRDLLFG
Nature of the series: Hexosaminidase activity in infantile Sandhoff (ISD) fibroblasts grown with compound. Format: cell-based.
Description: Cells were washed and lysed in Na Phosphate buffer pH 6.1. The lysates were divided into three equal aliquots (25 μl). To each aliquot, 25 μl of either MUGS ( 3.2 mM) or MUP (3 mg/ml) in 20 mM citrate phosphate buffer pH 4.3 was added. Reactions were incubated at 37° C. for 30-60 min. and stopped with 200 μl of 0.1M MAP buffer. Fluorescence was read using Molecular Devices.
Gemini EM MAX with excitation and emission set to 365 nm and 450 nm, respectively. The activity of Hexosaminidase A/S was measured using MUGS hydrolysis and acid phosphatase activity was measured using methylumbelliferyl phosphate (MUP).

For series [5], the system named is fibroblasts from a chronic TSD patient. The conditions noted are these: human, 5 days.
Description: as §1
The next series concerns the target human hexosaminidase A (Homo sapiens, UniProt P06865+P07686). Put plainly: Ki on human hexosaminidase A. Format: biochemical.
The target of series [6] is T2, hexosaminidase from the bacterial species Streptomyces plicatus (Sp. Hex.) (Streptomyces plicatus, UniProt O85361).
T2 sequence (O85361 1-506): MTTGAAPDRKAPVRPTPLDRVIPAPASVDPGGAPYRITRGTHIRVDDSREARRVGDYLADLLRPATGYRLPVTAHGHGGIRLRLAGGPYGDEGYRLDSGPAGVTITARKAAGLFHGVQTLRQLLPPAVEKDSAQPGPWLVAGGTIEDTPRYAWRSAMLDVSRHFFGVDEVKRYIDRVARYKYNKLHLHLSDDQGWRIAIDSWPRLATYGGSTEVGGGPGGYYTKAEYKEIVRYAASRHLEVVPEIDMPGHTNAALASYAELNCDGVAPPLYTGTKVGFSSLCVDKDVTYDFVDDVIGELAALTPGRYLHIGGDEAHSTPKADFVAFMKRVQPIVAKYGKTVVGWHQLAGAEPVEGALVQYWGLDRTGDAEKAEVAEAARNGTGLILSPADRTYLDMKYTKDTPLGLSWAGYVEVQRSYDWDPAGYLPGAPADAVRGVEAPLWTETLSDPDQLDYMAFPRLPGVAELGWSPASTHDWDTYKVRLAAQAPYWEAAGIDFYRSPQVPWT
As to conditions: value carries reference superscript 56; cited from earlier work.

Another series has as its system adult mice. Put plainly: Toxicity studies in adult mice. It is filed as in vivo.
The next series deals with β-mannosidase. Nature of the series: Serum/plasma β-mannosidase in NGT-treated mice (MUM). Format: in vivo.
The target in series [7] is T3, hexosaminidase B (Homo sapiens, UniProt P07686).
T3 construct: from tissue; host or cells: human placenta
T3 sequence (P07686 315-556 limits assumed): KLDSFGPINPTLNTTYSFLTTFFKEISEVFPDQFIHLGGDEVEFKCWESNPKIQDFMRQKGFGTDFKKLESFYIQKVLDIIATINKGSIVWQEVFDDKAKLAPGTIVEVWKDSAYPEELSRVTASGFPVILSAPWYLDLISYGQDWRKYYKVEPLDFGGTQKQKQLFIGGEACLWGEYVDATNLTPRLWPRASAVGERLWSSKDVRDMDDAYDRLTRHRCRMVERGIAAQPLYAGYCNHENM
T3 sequence (P07686 122-311 limits assumed): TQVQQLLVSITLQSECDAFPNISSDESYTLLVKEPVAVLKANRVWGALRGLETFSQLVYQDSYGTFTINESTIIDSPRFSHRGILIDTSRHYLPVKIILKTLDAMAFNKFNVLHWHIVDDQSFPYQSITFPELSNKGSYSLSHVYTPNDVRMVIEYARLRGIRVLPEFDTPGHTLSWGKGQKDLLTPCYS
T3 sequence (P07686 50-107 partner limits assumed): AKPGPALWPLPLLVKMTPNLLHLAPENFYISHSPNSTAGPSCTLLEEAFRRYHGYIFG
Put plainly: Heat denaturation of hexosaminidase B at 60° C. As to conditions: 60° C. up to 40 minutes, 2.4 μm NAG-thiazoline, MUG. It is filed as biochemical.
Description: The effect of NAG-thiazoline on heat denaturation of human hexosaminidase B was also examined. The enzyme was incubated at 60° C. for up to 40 minutes in the presence or absence of 2.4 μm NAG-thiazoline and its activity was then assayed as described above using MUG as substrate.

Series [8] deals with T3, hexosaminidase B. Put plainly: Denaturation of hexosaminidase B by guanidine hydrochloride. It is filed as biochemical.
Series [9] has as its system hexosaminidases A plus B (total Hex). Put plainly: Plasma hexosaminidase A plus B in NGT-treated mice (MUG). Format: in vivo. As to conditions: CD1 mice, 10, 40 or 100 mg i.p., 2 days later.
Description: (§2) Plasma levels of hexosaminidases A plus B and hexosaminidase A alone were measured by the fluorescent assay described above, using MUG and MUGS as substrates respectively. β-mannosidase was similarly assayed using 4-methylumbelliferyl-β-D-mannopyranoside (MUM) as substrate.
The test system of a further series is hexosaminidase A plus B. Nature of the series: Brain hexosaminidase A plus B in NGT-treated mice. Format: in vivo. The conditions noted are these: 40 mg s.c. every 4 days for 15 days.
The target of series [10] is T2, hexosaminidase from the bacterial species Streptomyces plicatus (Sp. Hex.). Nature of the series: Ki on bacterial hexosaminidase (MUG assay). It is filed as biochemical.
Where [11] appears, read: adult male CD1 mice, 40 mg/mouse i.v. or s.c. every four days up to 30 days.

Sequence of hexosaminidase A in wild type fibroblasts (P07686 315-556 limits assumed, one chain of several): as the sequence (P07686 315-556 limits assumed) above
Sequence of hexosaminidase A in wild type fibroblasts (P07686 122-311 limits assumed, one chain of several): as the sequence (P07686 122-311 limits assumed) above
Sequence of hexosaminidase A in wild type fibroblasts (P07686 50-107 partner limits assumed, one chain of several): as the sequence (P07686 50-107 partner limits assumed) above
Sequence of human hexosaminidase A (P07686 315-556 limits assumed, one chain of several): as the sequence (P07686 315-556 limits assumed) above
Sequence of human hexosaminidase A (P07686 122-311 limits assumed, one chain of several): as the sequence (P07686 122-311 limits assumed) above
Sequence of human hexosaminidase A (P07686 50-107 partner limits assumed, one chain of several): as the sequence (P07686 50-107 partner limits assumed) above
Description for β-mannosidase: as §2

`CC(=O)NC1CN2CCC(O)C2C(O)C1O` (stereo not drawn) [ACAS, 6-acetamido-6-deoxy-castanospermine]: the “hexosaminidase A activity” value is “decreased” in series [1] (WT fibroblasts, all concentrations); “increased” in [1] (wild type cells, ACAS 4 days, MUGS); “decreased” in series [2] (ITSD fibroblasts, all concentrations); “not” in [2] (infantile Tay-Sachs cells, ACAS 4 days, MUGS); “increased” in series [3] (various concentrations of ACAS); “increased” in series [4] (various concentrations of ACAS).

Consider `CC(=O)N[C@@H]1[C@@H](O)[C@@H](O)[C@@H](CO)O[C@H]1O` [GalNAc, N-acetyl-β-D-galactosamine], for which, in series [5], the “concentration at which cell lysis occurred” value was above 200000 µM.

`CC1=NC2[C@@H](O)[C@@H](O)C(CO)O[C@H]2S1` (stereo partly drawn) [NAGal-thiazoline (2.6), N-acetyl galactosamine-thiazoline]: on human hexosaminidase A, the “mode of inhibition of hexosaminidase A” value is “competitive inhibitors”. Also, the Ki in [6] was 100 µM.

Regarding `CC1=NC2[C@@H](O)[C@H](O)C(CO)O[C@H]2S1` (stereo partly drawn) [NGT, N-acetylglucosamine-thiazoline], the “mode of inhibition of hexosaminidase A” value on human hexosaminidase A is “competitive inhibitors”. For the same compound, the “increase in hexosaminidase A activity” value in series [1] (WT fibroblasts, NGT 3 mM) is listed as “two fold”. Moreover, the “MUGS hydrolysis with increasing concentration” value in [2] (ITSD cells) is “decline”. Moreover, in the series on adult mice (setting [11]), the “acute or sub-acute toxicity” value was “No acute or sub-acute toxicity was observed” and the “histological examination of autopsied tissues” value is listed as “no changes”. The signs of toxicity result in the series with adult mice (adult mice, 10, 40 or 100 mg i.p.) is given as “None of the mice treated with inhibitors showed any signs of toxicity”. For the same compound, in the series on β-mannosidase (CD1 mice, 10, 40 or 100 mg i.p., 2 days later), the “plasma β-mannosidase level” value is listed as “unchanged”. In addition, the “serum βD mannosidase levels versus control” value with β-mannosidase (mice, 10, 40 or 100 mg i.p., 3 to 4 days after treatment) is recorded as “generally the same”. Moreover, the “hexosaminidase A and S activity” value in series [3] (NGT) is “increased”. The “activity of Hexosaminidase A/S (MUGS)” value in series [4] (2 days, varying concentrations) is “increased”. Also, in series [4] (NGT), the “hexosaminidase S activity” value is on record as “increased”. Further, at hexosaminidase B [7], the “hexosaminidase B activity after heat denaturation versus control” value is “preserved greater hexosaminidase B activity than seen in the control”. Moreover, the “protection of hexosaminidase B against denaturation by guanidine hydrochloride” value at hexosaminidase B [8] is “protect”. For the same compound, the “plasma hexosaminidase A plus B (total Hex) level” value in series [9] was “unchanged”. Further, in the series on hexosaminidase A plus B, the “brain hexosaminidase A plus B” value is on record as “essentially unchanged”. Besides, the Ki in [6] is 20 µM.

In the case of `CC(=O)NC1NCCC(O)C1O` (stereo not drawn) [XylNAc-isofagomine•HCI (2.7), XylNAc-isofagomine•HCI], the Ki was determined as 38 µM in [10] and 90 µM on human hexosaminidase A (read-out: Ki Hex A).
